Test results from patent US12365709B2, “Immunomodulatory peptide” (INSTITUT NATIONAL UNI[…]-FRANCOIS CHAMPOLLION, priority 2017, dated 2025).
No end group written: not given here.

Assays:
[1] = tested on: macrophages derived from human monocytes; assay: Production of ROS by macrophages derived from human monocytes in response to C. albicans (luminol chemiluminescence); assay type: cell-based; conditions: macrophages treated 24 hours; yeast ratio per macrophage 3:1; vs untreated
Source text: To analyse the production of ROS, the macrophages derived from human monocytes have been treated, or not, with the peptide P17, P17, non-amidated, or with the following P17 fragments, P17(1-5), P17(1-7), P17(1-9), P17(1-11), P17(3-13), P17(5-13), P17(7-13) and P17(9-13); the fragments P17(1-5), P17(1-7), P17(1-9), P17(1-11) not being amidated at the C-terminal […] and the fragments P17(3-13), P17(5-13), P17(7-13) and P17(9-13) being amidated at the C-terminal. Then, the macrophages derived from human monocytes thus treated have been incubated at 37° C. for 24 hours. The production of reactive derivatives of oxygen (ROS) has been measured by chemiluminescence in the presence of 5-amino-2,3-dihydro-1,4-phthalazinedione (luminol) (EnVision; PerkinElmer). The chemiluminescence generation has been continually measured for 1 hour 30 minutes after incubation of cells with luminol (66 μM) in the presence, or not, of C. albicans (yeast ratio per macrophage: 3:1).

[2] = tested on: macrophages derived from human monocytes; assay: Removal of C. albicans by macrophages derived from human monocytes (CFU); assay type: cell-based; conditions: macrophages treated with peptide 24 hours, then C. albicans 0.3 yeasts per macrophage, 4 hours; vs untreated
Method: The macrophages derived from human monocytes have been treated, or not, with the peptide P17 or fragments of it then incubated at 37° C. for 24 hours. These cells have been incubated for 40 minutes at 37° C. with C. albicans (at a ratio of 0.3 yeasts per macrophage) and the non-bound yeasts are removed by washing. These macrophages are thus incubated at 37° C. for 4 hours. After incubation, the environment has been removed and the cells have been lysed. The units forming colonies (CFU) of C. albicans have been determined on Sabouraud boxes after spreading and culturing for 48 hours at 37° C.

C-type lectin receptors = assay: Protein expression of C-type lectin receptors (flow cytometry); assay type: cell-based, human; conditions: P17 200 μg/ml, 24 hours
Method: To analyse the protein level of C-type lectin receptors, the macrophages derived from human monocytes have been treated, or not, with the peptide P17 (200 μg/ml) then incubated at 37° C. for 24 hours. The cells collected have been centrifugated at 1500 rpm for 10 minutes and […] have been suspended in the PBS supplemented with 1% foetal calf serum (FCS). The cells have been marked with antibodies coupled with different fluorochromes directed against the Dectin-1 receptor (mAb; R&D FAB1859C-100, 1/40), DC-SIGN (mAb; BD Biosciences 551 265, 1/20) CD16 (mAb; PNIM 0814, 1/20), CD36 (mAb; BD Biosciences 550 956, 1/40) and the mannose receptor (specific MR (mannose receptor) ligand) conjugated FITC (Sigma A7790, 1 mg/ml 1/100)). The analysis has been carried out by flow cytometry (Becton Dickinson FACScalibur) over a population of 10000 cells.

[3] = tested on: macrophages derived from human monocytes; assay: Production of IL-1β, TNFα, IL-10 and IL-12 by macrophages derived from human monocytes in response to C. albicans (ELISA); assay type: cell-based; conditions: P17 24 hours then C. albicans 3:1 for 8 hours
Method: Macrophages derived from human […] have been stimulated with the peptide P17 for 24 hours, then these macrophages activated by the peptide P17 have been stimulated with C. albicans at a yeast per macrophage ratio of 3:1 for 8 hours. The production of IL-1β, TNFα, IL-10 and IL-12 in cell supernatants has been determined by ELISA (OptiElA BD Biosciences).

[4] = tested on: peritoneal murine macrophages; assay: Production of ROS by murine macrophages in response to murine lymphoma T tumour cells (EL4); assay type: cell-based; conditions: murine macrophages treated with P17 24 hours
Method: To analyse the production of ROS, peritoneal murine macrophages have been treated, or not, with the peptide P17 then incubated at 37° C. for 24 hours. The production of reactive derivatives of oxygen (ROS) has been measured by chemiluminescence in the presence of 5-amino-2,3-dihydro-1,4-phthalazinedione (luminol) (EnVision; PerkinElmer). The chemiluminescence generation has been continually measured for 1 hour 30 minutes after incubation of cells with luminol […] in the presence, or not, of EL4 lymphoma T tumour cells.

C. albicans = assay: Experimental gastrointestinal Candida murine model; assay type: in vivo; conditions: P17 10 μg per mouse i.p., vs untreated mice
Method: For in vivo experiments, a gastrointestinal infection with the C. albicans strain 98/26135 has been established by feeding with 50×10^6 of C. albicans per mouse (n=8 per group). No antibiotic or immunosuppressant treatment has been used to facilitate the infection of mucous membranes of the oral cavity and of the gastrointestinal tract. The mice have been treated intraperitoneally (i.p.) with the peptide P17 (10 μg per mouse) or with a saline solution for control groups, 1 day before the injection with C. albicans, 1 day after infection and then every 2 days (5 injections). The body weight of each mouse has been recorded daily. On the 8th day after treatment (7 days after infection), all mice have been euthanised by asphyxiation with CO2.
The oesophagus, the stomach, the caecum and the liver have been removed aseptically to evaluate the colonisation by C. albicans. The peritoneal macrophages of the mice have been sampled and the ex vivo capacities thereof to remove and to phagocytose Candida albicans have been determined. The production of ROS, IL-(3 and IL-12 by these macrophages in response to Candida albicans have also been evaluated.

EL4 tumour cells = assay: Number of lymphoma T tumour cells (EL4) in the presence of murine macrophages; assay type: cell-based; conditions: co-culture with macrophages polarised by P17; vs untreated macrophages
Method: Peritoneal murine macrophages have been treated, or not, with the peptide P17 then incubated at 37° C. for 24 hours. These macrophages have been incubated for 40 minutes at 37° C. with luminescent lymphoma T cells (EL4-luc) and unbound cells are removed by washing. These macrophages are thus incubated at 37° C. for 4 hours. After incubation, the number of lymphoma T cells (EL4-luc) is evaluated by chemiluminescence.

[5] = tested on: macrophages derived from human monocytes; assay: Binding and phagocytosis of C. albicans by macrophages derived from human monocytes; assay type: cell-based; conditions: macrophages treated 24 hours, GFP yeasts, vs untreated
Method: To analyse the binding and the phagocytosis of C. albicans, macrophages derived from human monocytes have been treated, or not, with the peptide P17, then incubated at 37° C. for 24 hours. The macrophages derived from human monocytes have been brought together with the yeasts marked GFP (ratio 1/6) then incubated at 4° C. for 20 minutes, in order to evaluate the binding. The phagocytosis has been evaluated after 1 hour of incubation at 37° C. The quantity of C. albicans bound or ingested by macrophages derived from human monocytes has been determined by measuring the fluorescence by using a fluorimeter (PerkinElmer EnVision).

LFKEILEKIKA (LFKEILEKIKA-OH) [P17(1-11)]
production of ROS in response to C. albicans [1]: does not induce the production of ROS
removal of C. albicans by macrophages [2]: does not induce the production of ROS, nor the removal of Candida albicans

KEILEKIKAKL [P17(3-13)]
production of ROS in response to C. albicans [1]: conserve the activity
removal of C. albicans by macrophages [2]: activity close to that of P17

LFKEILEKIKAKL [P17] (LFKEILEKIKAKL-NH2)
production of ROS in response to C. albicans [1]: higher production of ROS
expression of C-type lectin receptors on the surface of macrophages (C-type lectin receptors): overexpression of C-type lectin receptors
production of IL-1β [3]: higher production
production of TNFα [3]: higher production
removal of C. albicans by macrophages [2]: considerably increases the capacity of human macrophages to remove in vitro C. albicans
production of ROS in response to EL4 tumour cells [4]: increased production of ROS
loss of body weight (C. albicans; mice with gastrointestinal candidiasis): lesser loss of weight
gastrointestinal colonisation by Candida albicans (C. albicans; mice): significantly lower
number of EL4 tumour cells (EL4 tumour cells): decreases significantly
capacity to recognise (binding) C. albicans ([5]; 4° C. for 20 minutes): greater capacity to recognise
capacity to phagocytose C. albicans ([5]; 1 hour at 37° C.): greater capacity to recognise and to phagocytose C. albicans

LFKEILEKIKAKL [non-amidated P17] (LFKEILEKIKAKL-OH; listed as Tetramorium bicarinatum)
production of ROS in response to C. albicans [1]: C-terminal amidation of P17 is essential to the pro-inflammatory activity

IKAKL [P17(9-13)]
production of ROS in response to C. albicans [1]: Only the fragments P17(3-13) and P17(5-13) conserve the activity

ILEKIKAKL [P17(5-13)]
production of ROS in response to C. albicans [1]: conserve the activity
removal of C. albicans by macrophages [2]: activity close to that of P17

EKIKAKL [P17(7-13)]
production of ROS in response to C. albicans [1]: Only the fragments P17(3-13) and P17(5-13) conserve the activity

LFKEILE (LFKEILE-OH) [P17(1-7)]
production of ROS in response to C. albicans [1]: does not induce the production of ROS
removal of C. albicans by macrophages [2]: does not induce the production of ROS, nor the removal of Candida albicans

LFKEILEKI (LFKEILEKI-OH) [P17(1-9)]
production of ROS in response to C. albicans [1]: does not induce the production of ROS
removal of C. albicans by macrophages [2]: does not induce the production of ROS, nor the removal of Candida albicans

LFKEI (LFKEI-OH) [P17(1-5)]
production of ROS in response to C. albicans [1]: does not induce the production of ROS
removal of C. albicans by macrophages [2]: does not induce the production of ROS, nor the removal of Candida albicans
